Like-named read-outs stand apart in the source and are kept apart here.
Assays:
[1] = test system: Sprague-Dowley rats; experiment: Cutaneous vascular hyperpermeability induced by PAF Acether in the rat; assay type: in vivo; conditions: 1 mg/kg IV; for PAF Acether induced wheal, Surface: PAF Acether 25 ng intradermal, 30 mn; for PAF Acether induced wheal, Surface / PAF Acether induced wheal, Coloration OD: p < 0.001; for PAF Acether induced wheal, Coloration OD: optical density at 620 nm; for PAF Acether induced wheal, Coloration % decrease / PAF Acether induced wheal, Surface % decrease: vs control
Procedure: Method: Intradermal injection of 25 ng of PAF Acether in the dorsal region of the rat with simultaneous IV injection of Evans blue dye (60 mg/kg/5 ml) induces vascular hyperpermeability and wheals formation. (for details see Basran GS, Page CP, Paul W and Morley J-Cromoglycate inhibits responses to platelet-activating factor (PAF Acether) in man: an alternative mode of action for DSCG in asthma-Eur. J. Pharma. (1983) 86 143-144).
These wheals were measured (surface in mm^2) at the inner side of the skin 30 mn after the injections and were taken off, put in 4 ml of formamide, incubated at 65° C. during 24 h in order to extract the dye and measure their coloration (optical density at 620 nm).
Groups of 6 Sprague-Dowley rats weighing 200 g were used and each rat received intradermal injections in two sites of the back. The experiment was performed in comparison with a reference compound, D 600 (methoxy verapamil), a calcium-blocker agent.
Treatments: Tested compounds were administered by IV route injected once simultaneously with the dye.

[2] = target: T1, PAF-Acether receptor (Oryctolagus cuniculus, UniProt G1TEI7); experiment: Competition with 3H-PAF Acether binding, rabbit membrane platelet preparation; conditions: read-out: reduction of 3H-PAF Acether binding
T1 construct: using a rabbit membrane platelet preparation; from tissue; host or cells: rabbit platelets (membrane preparation)
T1 sequence (G1TEI7 1-342): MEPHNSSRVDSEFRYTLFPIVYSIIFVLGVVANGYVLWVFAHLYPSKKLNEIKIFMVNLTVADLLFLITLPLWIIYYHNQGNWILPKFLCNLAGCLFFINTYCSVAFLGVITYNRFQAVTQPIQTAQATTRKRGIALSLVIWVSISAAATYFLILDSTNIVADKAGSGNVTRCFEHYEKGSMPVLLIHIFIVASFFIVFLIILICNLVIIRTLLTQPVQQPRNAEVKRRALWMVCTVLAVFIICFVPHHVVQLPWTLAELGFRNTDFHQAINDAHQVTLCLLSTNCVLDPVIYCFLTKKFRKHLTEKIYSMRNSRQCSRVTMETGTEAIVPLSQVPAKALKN
Excerpt: The competition of the alternative binding of either ^3 H-PAF Acether or one of the Ginkgolides was evidenced by radioactive determinations using a rabbit membrane platelet preparation. (100% control=^3 H-PAF Acether alone).

[3] = test system: rabbit plasma-rich platelets (PRP); experiment: Inhibition of PAF Acether-induced PA, rabbit PRP in vitro; assay type: cell-based; conditions: Oryctolagus cuniculus, Platelet, average of 10 assays, read-out: IC50 doses on PAF Acether-induced rabbit PA (PRP)
Procedure: (§1) The Inhibition of PAF Acether-induced PA has been studied on rabbit plasma-rich platelets (PRP). Two doses of PAF Acether were used (2.5 nM and 5 nM). The tested compound was added to the medium 3 minutes before PAF Acether and aggregation was followed by monitoring changes in electrical impedance (Whole-Blood aggregometer-chrono-Log); kadsurenone was simultaneously tested as reference compound and the IC50 molar doses of Ginkgolides A, B, C and M and of kadsurenone on PAF Acether-induced rabbit PA (PRP) have been calculated.
The results obtained are presented in the following table (average values for 10 assays for each dose) and FIG. 1: […]

[4] = test system: rabbit plasma-rich platelets (PRP); experiment: Aggregation induced by other known aggregants (ADP, thrombine, calcium ionophore A 23187, collagen, adrenaline); assay type: cell-based; conditions: calcium ionophore A 23187, collagen and adrenaline
[5] = test system: human PRP; experiment: Inhibition of PAF Acether-induced PA, human PRP in vitro; assay type: cell-based; conditions: PAF Acether 100 nM, read-out: IC Doses (PAF Acether-induced PA, human PRP)
Procedure: as §1
The inhibition of PAF Acether-induced PA has been studied on human PRP. The same protocol was used as for rabbit hereinabove.

[6] = test system: human platelets; experiment: Ex vivo PAF Acether-induced PA in man after IV administration; conditions: IV 25 mg, PAF Acether 100 nM
Procedure: […] DMSO).
The same protocol described hereinabove for rabbit was used in man with only one dose of each Ginkgolide (IV 25 mg) and two blood takes (at 0.5 h and 1 h).

[7] = test system: guinea-pig lung parenchymal strip; experiment: PAF Acether-induced contraction of superfused lung parenchymal strip; conditions: for inhibition at 30 µg/mL: Cavia porcellus, read-out: change of PAF Acether (3 ng)-induced contraction; for Contraction induced by PAF Acether (3 ng) (Arbitrary Units): preventive superfusion 30 μg/ml, average of 10 determinations
[8] = test system: New-Zealand rabbits; experiment: PAF Acether-induced shock in the rabbit; assay type: in vivo; conditions: for Extravasation (O.D.): 2 mg/kg IV perfusion, 30 mn, optical density at 590 nm, average of 10 animals; for Behaviour: behavioural modifications / Behaviour: deaths: 2 mg/kg IV, PAF Acether 2 and 4 nmol/kg, 10 animals per batch
Procedure: Treatment: Tested compounds (Gingkolides A, B and C) or vehicle were perfused in the ear vein in 45 ml NaCl 0.9% for 1 hour before PAF Acether injection. Vehicle consisted of 1.5 ml of propylene glycol completed to 45 ml by isotonic NaCl buffer; Ginkgolides were administered at the dose of 2 mg/kg IV; the figures reported in the following table are the average values of the 10 animals of each batch.

[9] = test system: Hartley guinea-pig; experiment: PAF Acether-induced bronchoconstriction in the anesthetized guinea-pig; assay type: in vivo; conditions: 1 mg/kg IV; for % of bronchoconstriction: 5 minutes before PAF Acether 60 ng/kg IV, % of maximal bronchoconstriction, average of 10 animals; for % of inhibition (bronchoconstriction): vs solvent in the same batch
Procedure: Method: (For details, see B. B. VARGAFTIG, J. LEFORT, F. WAL, M. CHIGNARD and M. C. MEDEIROS-Non-steroidal anti-inflammatory drugs of combined with anti-histamine and anti-serotonin agents interfere with the bronchial and platelet effects of PAF Acether-Enr. J. Pharm. (1982) 82 121-130). Male Hartley guinea-pig (400-500 g) were anesthetized with urethane 2 g/kg Ip., tracheotomised and ventilated by mean of a respiratory pump: 70-80 strokes mn, stroke volume 5 ml, a pneumothorax was done to abolish spontaneous respiration. The right jugular vein was catherized and used for injections.
The initial resistance was kept constant at 10 cm H2 O pressure according to the method of Konzett and Rossler and the overflowed airway was measured with a bronchospasm transducer UGO BASILE connected to a UGO BASILE recorder "GEMINI". Bronchial sensitivity of the animal was checked with acetylcholine (10-40 ng kg^-1 IV) and after constant response was obtained, there were injected, IV, first the propylene glycol and, five minutes later, 60 ng/kg of PAF Acether, which gave the control bronchoconstriction expressed as % of maximal bronchoconstriction given by clamping off the trachea. 40 minutes later, the tested compounds were administered by IV injection and, 5 minutes later, 60 ng/kg of PAF Acether by the same route. This experimentation was conducted on three batches of each 10 animals: first batch for Ginkgolide A, second one for Ginkgolide B and last one for Ginkgolide C, all at the 1 mg/kg dose. The figures of the following table are the average values for the 10 animals of each batch.

[10] = test system: guinea-pig mesenteric artery; experiment: Opto-electronic follow-up of PAF Acether-induced thrombus, guinea-pig mesenteric artery; assay type: in vivo
Excerpt: In this experimental study, 20 guinea-pigs were used. […] Briefly summarized, this method consists in the dissection over a distance of 2 to 3 mm of a branch of the mesenteric artery following gently extraction of a loop of small intestine. By transillumination, the image of this arterial segment is projected onto a set of 30 light-depending resistances (LDR) arranged in two columns of 15 elements each. An LDR element has the property to change its internal resistance as a function of a variation of light intensity. Each LDR is connected into its own Wheatstone bridge, and the changes in light intensity due to thrombus formation will be recorded as variations in electrical potentials and registered as such via a multiplexing device.
In the present investigation, several discriminating parameters are recorded: (a) the t1 interval or the lag period (this is the time interval between the beginning of the PAF Acether superfusion and the first signs of thrombus formation; (b) the td interval is the duration of the thrombotic phenomenon; (c) the O(t) curve indicates the number of LDR elements covered by the thrombus image; (d) the D(t) curve represents during each 30×1/9×10^-2 sec interval the greatest potential deviation on one of the LDR elements covered by the thrombus image; (e) the T(t) curve represents the summation of the potentials registered on the LDR elements during a time interval of 30×1/9×10^-2 sec the TTV(t) curve results from the integration of the T(t) values in function of time; (f) mD, mT, and mO correspond to the maximal values registered on, respectively, the D(t), T(t), and O(t) curves; (g) TTV is the maximal value of the TTV(t) curve, whereas TVM is the value of this curve up to the point where mT is reached.
In a first series of experiments (10 animals) the effect of local superfusion with PAF Acether (10^-4 M) is investigated.
In a second series of experiments (10 animals) the effects of Ginkgolide B and of kadsurenone have been compared preventively and curatively.

SMILES	PAF Acether induced wheal, Surface [1] [mm^2]	PAF Acether induced wheal, Coloration OD [1] [OD]	PAF Acether induced wheal, Coloration % decrease [1] [%]	PAF Acether induced wheal, Surface % decrease [1] [%]	inhibition at 10 µM [2] [%]	IC50 ([3]; PAF Acether 2.5 nM) [µM]	IC50 ([3]; PAF Acether 5 nM) [µM]	effect against aggregation induced by other known aggregants [4]	IC50 [5] [µM]	% of aggregation with respect to control ([6]; blood take at 0.5 h) [%]	% of aggregation with respect to control ([6]; blood take at 1.0 h) [%]	Contraction induced by PAF Acether (3 ng) (Arbitrary Units) [7] [Arbitrary Units]	Extravasation (O.D.) ([8]; PAF Acether 2 nmol/kg)	Extravasation (O.D.) ([8]; PAF Acether 4 nmol/kg)	Behaviour: behavioural modifications [8]	Behaviour: deaths [8]	% of bronchoconstriction [9] [%]	% of inhibition (bronchoconstriction) [9] [%]	further results
COc1ccc(CCN(C)CCCC(C#N)(c2cc(OC)c(OC)c(OC)c2)C(C)C)cc1OC (stereo not shown) [D 600, methoxy verapamil, reference compound]	62.6	0.664	-42	-39															deaths/6 ([1]; group of 6 rats): two
C[C@@H]1C(=O)O[C@H]2C[C@@]34[C@H]5C[C@@H](C(C)(C)C)[C@]36[C@@H](OC(=O)[C@@H]6O)O[C@@]4(C(=O)O5)[C@]21O [Ginkgolide A]	64.3	0.631	-45	-37	67	8.32	13.2	totally ineffective	90	0	5.7	10.30 ± 2.33	0.903	0.881	No behavioural	No death	13.3	84.1	inhibition at 30 µg/mL ([7]; 30 μg/ml, p < 0.001): 72.8%
CC1C(=O)OC2C(O)C34C5OC(=O)C3(OC3OC(=O)C(O)C34C(C(C)(C)C)C5O)C12O (stereo not shown) [Ginkgolide C]	68.1	0.701	-39	-34	83	15.3	25.4	totally ineffective	150	0	10.6	11.08 ± 2.42	0.910	0.875	No behavioural	No death	17.0	78.6	inhibition at 30 µg/mL [7]: 70.8%
CC1C(=O)OC2C1C13OC4OC(=O)C(O)C45C(C(C)(C)C)C(O)C(OC1=O)C35C2O (stereo not shown) [Ginkgolide M]						122	20.2	totally ineffective											inhibition at 100 µM [2]: 79%
C=CCC1=C[C@@]2(OC)C(=CC1=O)O[C@H](c1ccc(OC)c(OC)c1)[C@H]2C [Kadsurenone, kadsurenone, reference compound]						9.94	14		130										thrombus formation when superfused with PAF Acether (preventive) ([10]; PAF Acether superfusion): no thrombus appeared; time for disappearance of pre-formed thrombus (curative) ([10]; PAF Acether-induced thrombus): about 4.30 minutes

From patent US4734280A, “Treatment or prevention of PAF Acether-induced maladies” (priority 1984, dated 1988)
